# Results from paper PMC7821884, “BRAF inhibition protects against hearing loss in mice” (Science Advances, 2020).
# What was measured:
# HEI-OC1 cell line = test: Caspase-Glo 3/7 activity screen for protection from cisplatin-induced cell death; assay type: cell-based, mouse; settings: Mus musculus; HEI-OC1, 50 μM cisplatin, 22 hours
# Description: An unbiased screen for compounds protective against cisplatin ototoxicity ([12], [13]) was conducted using the immortalized inner ear cell line HEI-OC1 derived from mouse cochlea ([14]). One hundred sixty-two unique small-molecule kinase-specific inhibitors were screened in dose-response mode for protection from 50 μM cisplatin. A caspase-3/7 activity assay was selected to measure apoptosis using a protocol that quantifies a luminescent product derived from the cleavage of caspase-3/7 substrate (Caspase-Glo 3/7 reagent). One hundred percent luminescence was defined by cells treated with cisplatin alone, and 0% was defined by untreated cells (Fig. 1A, fig. S1, table S1, and dataset in the Supplementary Materials).
# In these screens, caspase-3 cleavage was chosen as the end point indicating cisplatin-induced apoptosis, because it allowed the inhibition of cell death to be monitored at the level of any molecular target upstream of caspase-3 cleavage in the HEI-OC1 cell line. Cells were plated at a previously optimized concentration of 1600 cells per well in medium without γ-interferon to limit proliferation and tested against 50 μM cisplatin based on a previous dose–response curve. Tested compounds were dissolved in DMSO before addition to medium with a final DMSO concentration of <0.5%. The screens are described in detail in our previous publications ([12], [13]). […]
# [1] = test system: phosphorylated ERK (pERK); test: pERK immunostaining of cisplatin-treated cochlear explants; assay type: cell-based, mouse; settings: 3 μM, 1 hour pretreatment, 10 min 150 μM cisplatin
# Text: Tissue samples were then imaged via confocal microscopy.
# [2] = test system: Tg(brn3c:GFP) zebrafish larvae neuromast HCs; test: Zebrafish lateral line neuromast hair cell loss after cisplatin; assay type: in vivo
# Text: Lateral line neuromasts of zebrafish are a well-established model for the study of drug protection from cisplatin or aminoglycoside toxicity because their HCs are considered homologous to mammalian HCs and readily accessible to compounds in vivo ([47]–[49]). As in our previous studies, MI1 (medial neuromast 1) and O1-2 (otic line) neuromasts were examined in Tg(brn3c:GFP) zebrafish larvae 5 days after fertilization ([50], [51]). […] Green fluorescent protein (GFP) (brn3c) and otoferlin staining were used to identify neuromast HCs. In fig.
# Zebrafish (D. rerio) experimental larvae of either sex were obtained by pair mating of adult fish maintained at Boys Town National Research Hospital. We used zebrafish line Tg(brn3c:GFP) that expresses a membrane-bound GFP in HCs. Fish were maintained at 28.5°C in E3 media [5 mM NaCl, 0.17 mM KCl, 0.33 mM CaCl2, and 0.33 MgSO4 (pH 7.2)] at a density of 50 embryos/larvae per […] petri dish. Experimental animals were used at 5 days post-fertilization and cryo-anesthetized after treatment and before fixation. Average HC counts in our studies were obtained from the following three neuromasts: MI1 (medial neuromast 1) and O1 and O2 (otic line).
# [3] = design: method as in PMID 29039591, PMID 31818130; settings: cited from earlier work
# [4] = test system: BRAF, MEK, and ERK phosphorylation; test: Western blot of cisplatin-induced MAPK phosphorylation in HEI-OC1 cells; settings: 14, 35, or 75 μM, 1 hour pretreatment, 50 μM cisplatin 1 hour
# Description: Whole lysates of HEI-OC1 cells were prepared in lysis buffer (9803, Cell Signaling Technology) after adding protease (cOmplete ULTRA Tablets 05892791001) and phosphatase (PhosSTOP 04906845001) inhibitors (Roche). The lysates were centrifuged for 10 min at 15,000g at 4°C, and the supernatants were collected. Protein concentrations in protein solutions were determined with the BCA protein assay kit (23235, Thermo Fisher Scientific). Forty micrograms of total cell lysate was loaded on 4 to 20% SDS–polyacrylamide gel electrophoresis gels. The following antibodies were used for immunoblot analysis: anti-BRAF (14814S), anti-pBRAF (Ser^445, 2696S), anti-ERK1/2 (4695), anti-pERK1/2 (Thr^202/Tyr^204, 9101S), anti-MEK1/2 (9122S), and anti-pMEK1/2 (Ser^217/221, 41G9S) were obtained from Cell Signaling Technologies and anti–β-actin (C4; SC-47778) was purchased from Santa Cruz. The antibodies were used at dilutions ranging from 1:500 to 1:1000. Anti-mouse (P0447) and anti-rabbit (P0448) secondary antibodies were purchased from Dako Laboratories and diluted 1:5000. National Institutes of Health (NIH) ImageJ software was used to quantify the band intensities and recorded as a ratio to loading control β-actin. Each Western blot series (n) was carried out using cell lysates from separate experiments. Blot intensities were quantified using NIH ImageJ software.
smiles,measurement,setting,value
CC(C)(C)c1nc(-c2cccc(NS(=O)(=O)c3c(F)cccc3F)c2F)c(-c2ccnc(N)n2)s1 [dabrafenib],IC50,HEI-OC1 cell line,13.5 µM
same,effect on cisplatin-induced ERK phosphorylation in DC and IPhC regions,[1],prevented ERK activation
same,protection from cisplatin-induced neuromast HC loss,"[2]; 1 hour pretreatment, 6 hours 400 μM cisplatin, dabrafenib 100 nM",significant protection
same,toxic effect of compound alone on neuromast HCs,[2]; all concentrations tested,no toxic effect
same,blood-brain barrier penetration,[3],penetrates the blood-brain barrier
same,"effect on cisplatin-induced BRAF, MEK, and ERK phosphorylation",[4],mitigated these changes in a dose-dependent manner
